Assay [1] relates to Trichoderma reesei (Rut-C30). In words: Cellulase induction studies in Trichoderma reesei culture, CMC endo-glucanase activity assay. The settings on record: for CMC (U/mL) at day 5: Example 4, inducer at 2% as carbon source, no glucose. In kind it is cell-based. The procedure: Trichoderma reesei (Rut-C30) was selected as the host for cellulase expression in this Example. To prepare for the cellulase induction studies, a citrate minimal media was first prepared. The media composition described by England et al. in U.S. 2010/0009408 was modified to include 14.4 g/L citric acid, 4 g/L KH2PO4, 6.35 g/L (NH4)2SO4, 2 g/L MgSO4-7H2O, 0.53 g/L CaCl2-2H2O, and trace metal elements at 1 mL/L, which included 5 g/L FeSO4-7H2O, 1.6 g/L MnSO4—H2O, and 1.4 g/L ZnSO4-7H2O. The final pH was adjusted to 5.50 using NaOH.
The Trichoderma reesei (ATCC56765) was used in this Example. This fungal strain was developed as a catabolic de-repressed strain from classic mutagenesis of parent strain NG14 and the wild type QM6A. See Seidl et al., BMC Genomics, 9:327 (2008). To propagate Trichoderma, the freeze-dried stock from ATCC was first dissolved in sterile deionized water, and then transferred onto a potato dextrose agar (PDA) plate (Teknova P0047) using a sterile loop. The PDA plate was maintained at room temperature under white fluorescent light. After approximately seven days, green Trichoderma spores were observed. In addition, 60% (w/v) glucose, 15% (w/v) lactose, and 15% (w/v) cellobiose stocks were prepared and used both as controls and as the carbon source for Trichoderma growth.
To initiate cellulase induction studies for each of the sophorolipid mixtures prepared in Examples 1-3 above, 0.5 mL of glucose stock was first placed into 14 mL of citrate minimal media inside a 125 mL baffled flask. […]
To commence the fermentation, an approximately 1 cm×1 cm square agar plug was removed from the Trichoderma spore-containing PDA agar plate using a sterile loop and placed into the cellulase induction culture media. […] At five days of fermentation, the samples were collected and analyzed for carboxymethylcellulose (CMC) endo-glucanase activity. […] It should be understood that one CMC unit denotes the activity that liberates 1 μmol of reducing sugars (expressed as glucose equivalents) in one minute under the specified conditions of 50° C. and pH 4.8.

In assay [2] the test system is Trichoderma reesei (Rut-C30). The description is as above. The settings on record: for Cellulase activity U/mL at day 3 / Cellulase activity U/mg at day 3: 2% glucose. Type of assay: cell-based.
In the next assay the test system is Trichoderma viride. The settings on record: Mandels et al. 1962; cited from earlier work.
The mark [3] stands for this setting: Example 8, 1.0 g/L (15 mg/15 mL, 2.92 mM).
The mark [4] stands for this setting: Example 9, 1.0 g/L (15 mg/15 mL, 2.92 mM).
Where [5] appears, read: Example 8, 0.13 g/L (2.0 mg/15 mL, 0.38 mM).
[6] abbreviates: Example 8, 1.3 g/L (20 mg/15 mL, 3.90 mM).
Where [7] appears, read: Example 9, 0.13 g/L (2.0 mg/15 mL, 0.38 mM).
[8] abbreviates: Example 9, 1.3 g/L (20 mg/15 mL, 3.90 mM).

`O=C[C@H](O)[C@@H](O)[C@H](O[C@@H]1O[C@H](CO)[C@@H](O)[C@H](O)[C@H]1O)[C@H](O)CO` [cellobiose]: in assay [1] (Example 4, day 5, in words), the “cellulase activity compared to the glucose control” value was “marginal cellulase activity”. Also, the “CMC (U/mL) at day 5” value in assay [1] came to 2.05 U/mL. Further, the “Cellulase activity U/mL at day 3” value in assay [2] (setting [3]) and in assay [2] (setting [4]) was 0.34 U/mL throughout. Further, the “Cellulase activity U/mg at day 3” value in assay [2] (setting [3]) and in assay [2] (setting [4]) was 0.34 U/mg throughout.

As for `OC[C@H]1O[C@@H](O[C@H]2[C@H](O)[C@@H](O)C(O)O[C@@H]2CO)[C@H](O)[C@@H](O)[C@H]1O` (stereo partly drawn) [lactose], the “CMC (U/mL) at day 5” value in assay [1] is 10.1 U/mL; in assay [2] (Example 5, inducer at 2%, no glucose), 8.29 U/mL. Also, the “Cellulase activity U/mL at day 3” value in assay [2] (setting [3]) and in assay [2] (setting [4]) was 0.64 U/mL each time. The “Cellulase activity U/mg at day 3” value in assay [2] (setting [3]) and in assay [2] (setting [4]) was 0.64 U/mg each time.

As to `OC[C@H]1O[C@@H](O[C@@H]2[C@@H](O)[C@H](O)[C@@H](CO)O[C@@H]2O)[C@H](O)[C@@H](O)[C@@H]1O` [sophorose, 2-O-beta-D-glucopyranosyl-alpha-D-glucose], the “increase in cellulase production compared to cellobiose” value in the assay with Trichoderma viride is listed as “about 2500 times”. Also, the “Cellulase activity U/mL at day 3” value in assay [2] (setting [5]) is recorded as 3.58 U/mL; in assay [2] (setting [6]) it was 15.0 U/mL; in assay [2] (setting [7]), 3.58 U/mL; in assay [2] (setting [8]), 15.0 U/mL. Further, the “Cellulase activity U/mg at day 3” value in assay [2] (setting [5]) worked out at 26.9 U/mg; in assay [2] (setting [6]), 11.2 U/mg; in assay [2] (setting [7]) it was 26.9 U/mg; in assay [2] (setting [8]) it was 11.2 U/mg.

The values are drawn from patent publication US9828592B2, “Chemically modified sophorolipids and uses thereof” (Sophoro Biotechnologies, LLC, priority 2011, dated 2017).
